Target: T1, Human prostaglandin E2 receptor 4 (EP4) (Homo sapiens, UniProt P35408)
T1 construct: expressed in transfected cells; host or cells: HEK293 cells transduced with EP4 BacMam virus
Assay: cAMP Gs Functional Assay (HTRF cAMP dynamic-2), antagonism of PGE2
Type: cell-based
Conditions: HEK293 cells transfected with EP4 BacMam virus; PGE2 challenge at EC80 (7 nM); pIC50 converted to functional pKb with a modified Cheng Prussoff equation; read-out: Human EP4 fpKb (converted)
Description: Cloning, Baculovirus generation, large scale infection of HEK293 cells and membrane preparation: Human prostaglandin E2 receptor 4 (EP4) was cloned into pBacMam expression vector (GeneScript, UK). Transposition of EP4 DNA was performed using Invitrogen's Bac-to-Bac Baculovirus Expression Systems. P0 baculovirus was generated by transfecting SF9 Cells with bacmid DNA using Cellfectin II transfection reagent (ThermoFisher Scientific, UK, catalog number 10362-100). Following P0 generation P1 virus was then generated ready for large scale infection and membrane preparation. HEK293 cells were grown in DMEM+Glutamax, supplemented with 10% heat inactivated fetal bovine serum (FBS). Cells were infected at a seeding density of 3.5 million cells/mL in 500 cm^3 flasks at 5% v/v EP4 Bacman. Expression was carried out over 36 hr period at 37° C. with 5% CO2. The cells were removed using PBS and a cell scrapper. The cell culture was centrifuged at 2500 RPM for 10 mins at 4° C. The supernatant was then poured off and the pellet stored at −80° C. The pellet was defrosted and re-suspended in 15 mL of homogenising buffer (20 mM HEPES, 10 mM EDTA, pH 7.4). Then homogenised in mechanical homogeniser (VMR) for 10 seconds. The membrane was centrifuged in centrifuge tubes at 40,000 g for 15 mins at 4° C. The supernatant was poured away and re-suspended in 15 mL of homogenising buffer. Homogenised for 20 seconds. The membrane was centrifuged at 40,000 g for 45 mins at 4° C. The membrane was re-suspended in 3 mL of storage buffer (20 mM HEPES, 0.1 mM EDTA, pH 7.4) mixing well. The resulting membranes were then stored at −80° C.
cAMP Gs Functional Assay: cAMP production following EP4 receptor activation was determined using the Homogeneous Time-Resolved Fluorescence (HTRF) cAMP dynamic-2 assay (Cisbio, France). HEK293 cells were transfected using a 0.5% EP4 Bacman virus for 36 hours, before dissociating the cells, and freezing at […].
On the day of testing, increasing concentration of test compounds, alongside positive controls (1 uM ONO-AE3-208) and negative control (DMSO (Sigma-Aldrich, UK) were added to a ProxiPlate-384 Plus, White 384-shallow well Mircoplate, (PerkinElmer, USA) using the ECHO dispense.
Cells were defrosted in a water bath and resuspended in DMEM supplemented with 10% FBS before centrifuging at 1200 RPM for 5 mins to form a pellet. The pellet was resuspended in assay buffer (DMEM+0.5 mM IBMX (Tocris, Abingdon, UK, Catalog Number 2845)) to a 1×10^6 cells/mL. Cell suspension, for a final assay concentration of 5000 cell/well was added using the multidrop to the pre-dispensed assay plate. The plate was then incubated at 37° C. for 30 mins, with 5% CO2. After incubation, EC80 concentration (7 nM) of PGE2 (EP4 agonist) was added to the plate. In parallel, a PGE2 dose-response curve was dispense to a separate plate. Assay buffer was then dispensed on top. The cAMP production was determined as manufacturer's instructions, before plates were read on a PheraStar fluorescence plate reader (BMG LabTech, Germany).
The pIC50 was converted to a functional pKb value using a modified Cheng Prussoff equation where Kd=agonist EC50 and Lhot=agonist challenge concentration;

T1 sequence (P35408 whole entry): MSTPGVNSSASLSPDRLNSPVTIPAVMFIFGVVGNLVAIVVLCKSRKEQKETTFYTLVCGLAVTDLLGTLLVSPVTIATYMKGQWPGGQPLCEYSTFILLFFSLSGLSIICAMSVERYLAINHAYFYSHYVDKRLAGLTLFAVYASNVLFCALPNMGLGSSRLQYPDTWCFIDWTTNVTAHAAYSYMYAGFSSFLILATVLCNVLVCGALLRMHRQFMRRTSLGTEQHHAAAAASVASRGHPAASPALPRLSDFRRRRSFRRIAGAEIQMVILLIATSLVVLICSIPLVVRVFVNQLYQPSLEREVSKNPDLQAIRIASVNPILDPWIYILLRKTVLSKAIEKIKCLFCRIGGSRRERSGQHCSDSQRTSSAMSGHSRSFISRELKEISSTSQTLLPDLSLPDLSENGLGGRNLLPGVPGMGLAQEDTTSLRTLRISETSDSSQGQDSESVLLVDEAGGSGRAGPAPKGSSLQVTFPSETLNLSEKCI

| SMILES | Ki |
| --- | --- |
| CC(C)[C@@H](OCc1cccc(C#N)c1)C(=O)N[C@@H](C)c1ccc(C(=O)O)cc1 [Example 22, 4-((S)-1-((R)-2-((3-cyanobenzyl)oxy)-3-methylbutanamido)ethyl)benzoic acid] | 7.24 nM |
| CC(C)[C@@H](OCc1ccc(OC(F)F)cc1)C(=O)N[C@@H](C)c1ccc(C(=O)O)cc1 [Example 23, 4-((S)-1-((R)-2-((4-(difluoromethoxy)benzyl)oxy)-3-methylbutanamido)ethyl)benzoic acid] | 14.5 nM |
| CC(C)[C@@H](OCc1cccc(OC(F)F)c1)C(=O)N[C@@H](C)c1ccc(C(=O)O)cc1 [Example 24, 4-((S)-1-((R)-2-((3-(difluoromethoxy)benzyl)oxy)-3-methylbutanamido)ethyl)benzoic acid] | 0.302 nM |
| CC(C)[C@@H](OCc1ccc(C(F)(F)F)cn1)C(=O)N[C@@H](C)c1ccc(C(=O)O)cc1 [Example 25, 4-((S)-1-((R)-3-methyl-2-((5-(trifluoromethyl)pyridin-2-yl)methoxy)butanamido)ethyl)benzoic acid] | 13.8 nM |
| CC(C)[C@@H](OCc1ccc(S(F)(F)(F)(F)F)cc1)C(=O)N[C@@H](C)c1ccc(C(=O)O)cc1 [Example 26, 4-((S)-1-((R)-3-methyl-2-((4-(pentafluoro-λ^6-sulfaneyl)benzyl)oxy)butanamido)ethyl)benzoic acid] | 27.5 nM |
| CC(C)[C@@H](OCc1ccc(F)c(F)c1)C(=O)N[C@@H](C)c1ccc(C(=O)O)cc1 [Example 27, 4-((S)-1-((R)-2-((3,4-difluorobenzyl)oxy)-3-methylbutanamido)ethyl)benzoic acid] | 1.91 nM |
| CC(C)[C@@H](OCc1ccc2c(c1)OC(F)(F)O2)C(=O)N[C@@H](C)c1ccc(C(=O)O)cc1 [Example 28, 4-((S)-1-((R)-2-((2,2-difluorobenzo[d][1,3]dioxol-5-yl)methoxy)-3-methylbutanamido)ethyl)benzoic acid] | 0.151 nM |
| CC(C)[C@@H](OCc1ccc(C(F)F)c(F)c1)C(=O)N[C@@H](C)c1ccc(C(=O)O)cc1 [Example 29, 4-((S)-1-((R)-2-((4-(difluoromethyl)-3-fluorobenzyl)oxy)-3-methylbutanamido)ethyl)benzoic acid] | 0.603 nM |
| CC(C)[C@@H](OCc1ccc(C2CC2)cc1)C(=O)N[C@@H](C)c1ccc(C(=O)O)cc1 [Example 30, 4-((S)-1-((R)-2-((4-cyclopropylbenzyl)oxy)-3-methylbutanamido)ethyl)benzoic acid] | 5.37 nM |
| CC(C)[C@@H](OCc1ccc(F)cc1)C(=O)NC1(c2ccc(C(=O)O)cc2)CC1 [Example 31, (R)-4-(1-(2-((4-fluorobenzyl)oxy)-3-methylbutanamido)cyclopropyl)benzoic acid] | 2.24 nM |
| CC(C)[C@@H](OCc1ccc(F)c(OC(F)F)c1)C(=O)N[C@@H](C)c1ccc(C(=O)O)cc1 [Example 32, 4-((S)-1-((R)-2-((3-(difluoromethoxy)-4-fluorobenzyl)oxy)-3-methylbutanamido)ethyl)benzoic acid] | 0.224 nM |
| CC(C)[C@@H](OCc1cccc(S(C)(=O)=O)c1)C(=O)NC1(c2ccc(C(=O)O)cc2)CC1 [Example 33, (R)-4-(1-(3-methyl-2-((3-(methylsulfonyl)benzyl)oxy)butanamido)cyclopropyl)benzoic acid] | 14.5 nM |
| CC(C)[C@@H](OCc1ccc(C(F)F)cn1)C(=O)N[C@@H](C)c1ccc(C(=O)O)cc1 [Example 34, 4-((S)-1-((R)-2-((5-(difluoromethyl)pyridin-2-yl)methoxy)-3-methylbutanamido)ethyl)benzoic acid] | 20.9 nM |
| CC(C)[C@@H](OCc1ccc(F)c(S(C)(=O)=O)c1)C(=O)N[C@@H](C)c1ccc(C(=O)O)cc1 [Example 35, 4-((S)-1-((R)-2-((4-fluoro-3-(methylsulfonyl)benzyl)oxy)-3-methylbutanamido)ethyl)benzoic acid] | 7.41 nM |
| Cc1cc([C@H](C)NC(=O)[C@H](OCc2ccc(C(F)(F)F)cc2)C(C)C)ccc1C(=O)O [Example 36, 2-methyl-4-((S)-1-((R)-3-methyl-2-((4-(trifluoromethyl)benzyl)oxy)butanamido)ethyl)benzoic acid] | 25.7 nM |
| CC(C)[C@@H](OCc1ccc(F)c(F)c1)C(=O)NC1(c2ccc(C(=O)O)cc2)CC1 [Example 37, (R)-4-(1-(2-((3,4-difluorobenzyl)oxy)-3-methylbutanamido)cyclopropyl)benzoic acid] | 1.23 nM |
| CC(C)[C@@H](OCc1cccc(O)c1)C(=O)N[C@@H](C)c1ccc(C(=O)O)cc1 [Example 38, 4-((S)-1-((R)-2-((3-hydroxybenzyl)oxy)-3-methylbutanamido)ethyl)benzoic acid] | > 4680 nM |
| CC(C)[C@@H](OCc1cccc(C2CC2)c1)C(=O)N[C@@H](C)c1ccc(C(=O)O)cc1 [Example 39, 4-((S)-1-((R)-2-((3-cyclopropylbenzyl)oxy)-3-methylbutanamido)ethyl)benzoic acid] | 0.229 nM |
| COCc1cccc(CO[C@@H](C(=O)N[C@@H](C)c2ccc(C(=O)O)cc2)C(C)C)c1 [Example 40, 4-((S)-1-((R)-2-((3-(methoxymethyl)benzyl)oxy)-3-methylbutanamido)ethyl)benzoic acid] | 1.66 nM |
| CC(C)[C@@H](OCc1ccc(O)cc1)C(=O)N[C@@H](C)c1ccc(C(=O)O)cc1 [Example 41, 4-((S)-1-((R)-2-((4-hydroxybenzyl)oxy)-3-methylbutanamido)ethyl)benzoic acid] | > 12900 nM |
| CC(C)[C@@H](OCc1ccc(F)cc1)C(=O)N[C@@H](C)c1ccc(-c2nnn[nH]2)cc1 [Example 42, (R)—N—((S)-1-(4-(1H-tetrazol-5-yl)phenyl)ethyl)-2-((4-fluorobenzyl)oxy)-3-methylbutanamide] | 1.74 nM |
| CC(C)[C@@H](OCc1ccc(C(F)(F)F)cc1)C(=O)N[C@@H](C)c1ccc(-c2nnn[nH]2)cc1 [Example 43, (R)—N—((S)-1-(4-(1H-tetrazol-5-yl)phenyl)ethyl)-3-methyl-2-((4-(trifluoromethyl)benzyl)oxy)butanamide] | 0.501 nM |
| CC(C)[C@@H](OCc1cccc(CO)c1)C(=O)N[C@@H](C)c1ccc(C(=O)O)cc1 [Example 45, 4-((S)-1-((R)-2-((3-(hydroxymethyl)benzyl)oxy)-3-methylbutanamido)ethyl)benzoic acid] | 10 nM |
| CC(C)[C@@H](OCc1cccc(Cl)c1)C(=O)NC1(c2ccc(C(=O)O)cc2)CC1 [Example 50, (R)-4-(1-(2-((3-chlorobenzyl)oxy)-3-methylbutanamido)cyclopropyl)benzoic acid] | > 12900 nM |
| CC(C)[C@@H](OCc1cccc(OC(F)F)c1)C(=O)NC1(c2ccc(C(=O)O)cc2)CC1 [Example 52, (R)-4-(1-(2-((3-(difluoromethoxy)benzyl)oxy)-3-methylbutanamido)cyclopropyl)benzoic acid] | 0.389 nM |
| CC(C)[C@@H](OCc1ccc(C(F)(F)F)cc1)C(=O)N[C@@H](C)c1ccc(C(=O)NS(C)(=O)=O)cc1 [Example 53, 4-((S)-1-((R)-3-methyl-2-((4-(trifluoromethyl)benzyl)oxy)butanamido)ethyl)-N-(methylsulfonyl)benzamide] | 64.6 nM |
| CC(C)[C@@H](OCc1cccc(C#N)c1)C(=O)NC1(c2ccc(C(=O)O)cc2)CC1 [Example 54, (R)-4-(1-(2-((3-cyanobenzyl)oxy)-3-methylbutanamido)cyclopropyl)benzoic acid] | > 12900 nM |
| CC(C)[C@@H](OCc1ccc2c(c1)OC(F)(F)O2)C(=O)NC1(c2ccc(C(=O)O)cc2)CC1 [Example 55, (R)-4-(1-(2-((2,2-difluorobenzo[d][1,3]dioxol-5-yl)methoxy)-3-methylbutanamido)cyclopropyl)benzoic acid] | 0.479 nM |

Reference: patent publication US12391641B2, “Prostaglandin EP4 receptor antagonist compounds” (NXERA PHARMA UK LIMITED, priority 2019, dated 2025)
